Reference: patent US20230149358A1, “COMBINATION CANCER THERAPY WITH PENTAAZA MACROCYCLIC RING COMPLEX AND HORMONE THERAPY AGENT” (Galera Labs, LLC, priority 2020, published 2023)
“Also recorded” adds a separate entry of the source.

Tests used:
LNCaP-ENZR cells = experiment: Clonogenic cell survival, LNCaP-ENZR cells; format: cell-based; details: ENZ with GC4419 (20 μM) for 5 days
Description: In FIG. 21(a), clonogenic cell survival experiments were performed in LNCaP-ENZR (left two bars) and LNCaP-MnSOD^K68Q (right two bars) treated with ENZ, with or without GC4419 (20 μM) for 5 days. […] Tumor volumes were measured three times a week for 46 days. For each group n=10. Error bars ±1 SEM. All experiments done in triplicate. **p<0.01.
To address whether there is a link between MnSOD-K68-Ac and ENZR, two ENZ sensitive prostate tumor cell lines were used, LNCaP or 22RV1, which were cultured in 5 μM of ENZ for 3 weeks and then continuously grown at 10 μM, using an established method^91 to select for ENZR cells. […] Since K68-Ac alters the surface charge at the MnSOD tetramerization interface, we assessed the oligomerization state of MnSOD in LNCaP-ENZR cells.

T47D-MnSOD^K68Q cells = experiment: Ki-67 staining, T47D-MnSOD^K68Q cells; format: cell-based, human; details: 5 μM GC4419 and/or 1 μM 4-hydroxy-Tam for 5 days
Description: MCF7-MnSOD^K68Q cells (in FIGS. 17a and 17b) and T47D-MnSOD^K68Q cells (in FIGS. 17c and 17d) were treated with 5 μM GC4419 and/or 1 μM 4-hydroxy-Tam for 5 days, and then stained for Ki-67 as well as DAPI. Quantifications of average Ki-67 intensity are shown in the bar graphs. In FIG. 17e, MCF7 and MCF7-HTR cells were implanted into both hind limbs of nude mice and tumor volumes were measured every 3 days for 6 weeks and the number of tumors that successfully implanted versus the total number of mice infected with MCF7 and MCF7-HTR as well as the average tumor weight and tumor size are shown. Representative images are shown. All experiments were done in triplicate. Error bars represent ±1 SEM. ***p<0.001.
Cells seeded on glass coverslips were fixed in 4% paraformaldehyde and then blocked with 1% BSA and 10% normal goat serum in 1×PBS. Cells were incubated with anti-Ki-67 (c-bioscience) antibody in 1×PBS followed by incubation with goat anti-rabbit IgG conjugated with Alexa Fluor 647 (Invitrogen) in 1×PBS with 5% goat serum. Cells were washed in 1×PBS, mounted, and imaged with a fluorescence microscope. Fluorescence images were captured using a laser scanning confocal microscope (Nikon A1R). The paired images in all the figures were collected at the same gain and offset settings. Post-collection processing was applied uniformly to all paired images.

rat = rat model; cited from earlier work
T47D-HTR cells [1] = experiment: Clonogenic cell survival, hydroxy-Tam-resistant T47D-HTR cells; format: cell-based, human; details: 5 μM GC4419 for 5 days
Description: Clonogenic cell survival assay. For the clonogenic survival analysis, exponentially growing cells were replated using appropriate dilutions, and clonogenic survival was evaluated after 14 days in regular growth medium. Cells were stained with crystal violet, and colonies of >50 cells were counted and utilized to calculate clonogenic survival^46.
To test parameters indicative of oxidative stress, a clonogenic assay with hydroxy-Tam and antioxidant treatments was performed. Cells were plated at a density of 50,000 cells per 60-mm dish and treated with 1 μM hydroxy-Tam (Sigma) and 5 μM GC4419 (Galera Therapeutics) for a total of 120 h. This protocol was repeated with a fresh medium change every 24 h for 5 days. On day 6, the cells were trypsinized, counted, and replated in control medium using appropriate dilutions, and clonogenic survival was evaluated.

MCF7-Cispl-R cells = experiment: SOX2 and OCT4 levels, MCF7-Cispl-R cells; format: cell-based, human; details: MCF7-Cispl-R treated with GC4419; data not shown
Description: Aberrant HIF2α levels promote lineage plasticity, leading to chemoresistance and metastasis. […] Thus, MCF7 cells were selected for cisplatin resistance (Cispl-R) by 3 months of exposure to 5 μM Cispl.

[2] = system: Tam resistant as well as loss of Sirt3 tumor cell lines; experiment: In vitro Tam resistance, Tam resistant and loss of Sirt3 tumor cell lines; format: cell-based; details: data not shown
[3] = system: Sirt3^−/−-MT-SIRT3^WT tumor cells; experiment: Mammary allograft tumor growth (bioluminescence), Sirt3^−/−-MT-SIRT3^WT; format: in vivo; details: Sirt3^−/−-MT-SIRT3^WT allografts, nude mice, IP
Description: (§1) Mice were subsequently injected with luciferin potassium (120 mg/kg) every week and signal intensity will be quantified. Error bars represent one SD from the mean.
(§2) These cell lines were subsequently infected with and selected to express either a SIRT3 wild-type (Sirt3^−/−-MT-SIRT3^WT) or deacetylation null (Sirt3^−/−-MT-SIRT3^DN) gene and a lenti-luciferase to assess tumor growth by bioluminescence. Allograft tumor mice were split into four groups: (1) control, untreated Sirt3^−/−-MT-SIRT3^DN; (2) GC4419 treated Sirt3^−/−-MT-SIRT3^DN; (3) control, untreated Sirt3^−/−-MT-SIRT3^WT; and (4) GC4419 treated Sirt3^−/−-MT-SIRT3^WT.

T47D-HTR cells [4] = experiment: Ki-67 staining, T47D-HTR cells; format: cell-based, human; details: 5 μM GC4419 and/or 1 μM 4-hydroxy-Tam for 5 days
Text: With respect to FIG. 16a, the data from FIG. 7i, where MCF7-HTR cells were stained for Ki-67, as well as DAPI, were counted with ImageJ and quantified for average Ki-67 intensity as shown in the bar graph. With respect to FIGS. 16b and 16c, T47D and T47D-HTR cells were stained for Ki-67 as well as DAPI, and particles in the nucleus were counted with ImageJ and quantified for average Ki-67 intensity as shown in the bar graph. In FIGS. 16d and 16e, MCF7-HTR cells, and in FIGS. 16f and 16g, T47D-HTR cells, were treated with 5 μM GC4419 and/or 1 μM 4-hydroxy-Tam for 5 days, and then stained for Ki-67 as well as DAPI. Quantifications of average Ki-67 intensity are shown in the bar graphs. All experiments were done in triplicate. Error bars represent ±1 SEM. ***p<0.001. Representative images are shown.
Cells seeded on glass coverslips were fixed in 4% paraformaldehyde and then blocked with 1% BSA and 10% normal goat serum in 1×PBS. Cells were incubated with anti-Ki-67 (c-bioscience) antibody in 1×PBS followed by incubation with goat anti-rabbit IgG conjugated with Alexa Fluor 647 (Invitrogen) in 1×PBS with 5% goat serum. Cells were washed in 1×PBS, mounted, and imaged with a fluorescence microscope. Fluorescence images were captured using a laser scanning confocal microscope (Nikon A1R). The paired images in all the figures were collected at the same gain and offset settings. […]

[5] = system: Sirt3^−/−-MT-SIRT3^DN tumor cells; experiment: Mammary allograft tumor growth (bioluminescence), Sirt3^−/−-MT-SIRT3^DN; format: in vivo; details: Sirt3^−/−-MT-SIRT3^DN allografts, nude mice, IP every other day for five weeks
Description: as §1, §2

[Cl][Mn][Cl].c1cc2nc(c1)CN[C@H]1CCCC[C@@H]1NCCN[C@H]1CCCC[C@@H]1NC2 [GC4419]
tumor cell survival in the presence of ENZ (clonogenic) (LNCaP-ENZR cells): significant decrease in tumor cell survival in the presence of ENZ; also recorded: reversed the ENZR | Ki-67 staining (T47D-MnSOD^K68Q cells): reversed the increase in Ki-67 IHC staining; also recorded: decreased Ki-67 levels | VEGFr inhibitor-induced pulmonary disease (rat): attenuate VEGFr inhibitor-induced pulmonary disease | sensitivity to hydroxy-Tam (clonogenic cell survival) (T47D-HTR cells [1]): became sensitive to hydroxy-Tam | SOX2 and OCT4 levels (MCF7-Cispl-R cells): decreased SOX2 and OCT4 levels | Tam resistance in vitro [2]: reverses Tam resistance | allograft tumor growth [3]: no change in tumor growth was observed | Ki-67 staining (T47D-HTR cells [4]): exhibited decreased Ki-67 IHC staining; also recorded: decreased Ki-67 levels | allograft tumor growth [5]: significant decrease in tumor growth; also recorded: tumor growth is inhibited
